Data reported in US7846434B2, “Materials and methods for improved immunoglycoproteins” (Trubion Pharmaceuticals, Inc., priority 2006, dated 2010).

Legend:
[1] = target: T1, CD37 cell surface receptor (Homo sapiens, UniProt P11049); assay: TRU-016 binding to human PBMC B lymphocytes by two-color flow cytometry
T1 construct: Human PBMCs are isolated over LSM density gradients and incubated with unconjugated TRU-016; endogenous in cells; host or cells: human PBMCs, gated for CD19+ B lymphocytes
T1 sequence (P11049 1-281): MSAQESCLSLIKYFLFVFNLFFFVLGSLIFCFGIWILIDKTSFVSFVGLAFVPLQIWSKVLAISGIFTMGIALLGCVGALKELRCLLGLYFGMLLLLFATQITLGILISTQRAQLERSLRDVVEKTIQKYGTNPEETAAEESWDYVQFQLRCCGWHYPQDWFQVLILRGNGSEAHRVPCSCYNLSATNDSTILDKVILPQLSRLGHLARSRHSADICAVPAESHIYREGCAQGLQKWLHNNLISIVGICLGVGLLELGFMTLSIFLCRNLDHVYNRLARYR
Protocol: Experiments may be performed to confirm that the binding specificity of the parent antibody to the CD37 cell surface receptor is preserved in TRU-016. Human PBMCs are isolated over LSM density gradients and incubated with unconjugated TRU-016 and PE-conjugated anti-human CD19. Cells are washed and incubated with 1:100 FITC GAH IgG (Fc specific) for 45 minutes on ice. Cells are washed and analyzed by two-color flow cytometry on a FACsCalibur instrument using Cell Quest software. Cells are gated for B lymphocytes or non-B lymphocytes by CD19 staining.

Ramos B cells = assay: CDC, Ramos B cells with human serum, propidium iodide; assay type: cell-based; conditions: TRU-016 from CHO cells cultured with 200 μM DMJ, 10 μM kifenunsine or 200 μM castanospermine
Protocol: To determine the CDC activity of TRU-016 purified protein produced according to Example 2, Ramos B cells were suspended in Iscoves (Gibco/Invitrogen, Grand Island, N.Y.) at 5×10^5 cells/well in 75 μl. TRU-016 (75 μl) were added to the cells at twice the concentrations indicated. Binding reactions were allowed to proceed for 45 minutes prior to centrifugation and washing in serum-free Iscoves. Cells were resuspended in Iscoves with human serum (containing complement) at various concentrations. The cells were incubated 60 minutes at 37° C. Cells were washed by centrifugation and resuspended in staining media with 0.5 μg/ml propidium iodide. Samples were incubated 15 minutes at room temperature in the dark prior to analysis by flow cytometry using a FACsCalibur and CellQuest software (Becton Dickinson).

CD16 = CD16 assays on sera of mice administered TRU-016; assay type: binding; conditions: sera at 48, 72, 96 and 192 hours after administration of carbohydrate-modified TRU-016
Ramos cells = assay: Ramos tumor model in nude mice; assay type: in vivo; conditions: TRU-016 from CHO cells treated with 200 μM DMJ, 10 μM kifenunsine or 200 μM castanospermine
Protocol: Nude mice are administered 5×10^6 Ramos cells subcutaneously on day 0 and injected intravenously with 200 μg control human IgG or TRU-016 test protein produced by CHO cells treated with 200 μM DMJ, 10 μM kifenunsine or 200 μM castanospermine on days 0, 2, 4, 6, and 8. Mice typically develop tumors within 6 days and die shortly thereafter. Tumors are measured three times weekly with digital calipers and LabCat software, and tumor volume is calculated as […]. Body weight is also determined once a week.
Mice are sacrificed when the tumor reaches 1500 mm^3 in size (1200 mm^3 on Fridays). Mice are also sacrificed if ulceration of a tumor occurs, the tumor inhibits the mobility of animal, or if weight loss equals or exceeds 20%.

[2] = system: CD37-expressing Daudi cancer B-cell line; assay: ADCC, 51Cr-labeled Daudi target cells with human PBL effector cells; assay type: cell-based; conditions: treated with CS over a range of 100 μM-800 μM final concentration
Protocol: TRU-016 produced as described in Example 8 is incubated with the CD37-expressing Daudi cancer B-cell line in conjunction with primary human peripheral blood lymphocytes (PBL's) effector cells to assess ADCC activity.
Daudi target cells (5×10^6) are added to a 15 ml conical tube and then centrifuged at 250×g for 5 minutes at 20° C. and the supernatant removed. The cell pellet is resuspended by the addition of 0.3 mCi Chromium-51 (^51Cr, GE Healthcare, CJ51). The cells are incubated for 75 minutes at 37° C. with 5% CO2, allowing the cells to incorporate the radioactive isotope. The cells are then washed three times to remove any unincorporated ^51 Cr. This is done by adding 10 mL of complete media—IMDM (Gibco) with 10% FBS (Gibco)—to the tube, centrifuging at 250×g for 5 minutes at 20° C. followed by removal of supernatant. The final resuspension is in 11.5 mL of complete media. TRU-016 is diluted in complete media, at concentrations that are able to generate maximal to background levels of cell lysis (500 ng/mL-0.005 ng/mL). These titrations are plated out, 50 μL/well, in a round bottom 96 well plate. The ^51Cr labeled target cells are added to the dose titrations of TRU-016 at 50 μL/well and the control wells (control media without TRU-016). PBL's are isolated from fresh heparinized whole blood by density gradient centrifugation using Lymphocyte Separation Media as per protocol (LSM, MP Biomedical, 50494/36427). […] The assay is incubated for 4.5-5 hours at 37° C., 5% CO2. The effector cells lyse the target cells relative to the TRU-016 concentration, releasing a proportional amount of ^51Cr into the assay supernatant. Following the incubation the plate is centrifuged at 250×g for 3 minutes at 20° C. A 25 μL volume of cell-free supernatant is removed from all wells to a scintillation plate (Perkin Elmer 6005185) and dried overnight. The amount of ^51Cr isotope in each well of the scintillation plate is measured using a Topcount plate reader (Perkin Elmer, C9904VO). The data are expressed as percent of specific release. Specific release is calculated as: (Sample value−Spontaneous value)/(Maximum value−Spontaneous value)*100% Spontaneous=amount of ^51Cr released from target cell only Maximum release=amount of ^51Cr released from targets treated with detergent lysing agent Background Control=amount of ^51Cr released from target cells+effector cells(No TRU-016)
A dose response is generated and fit to a 4-parameter logistic curve using SoftMax Pro software (Molecular Devices, ver 5.0.1). Titrations of TRU-016 are utilized to create dose response curves of test and reference material for comparison. The EC50 values for the treated articles are compared to the untreated control (no CS) to determine the percent increase in ADCC activity.

Question: Which results are given for “TRU-016: [G28-1 scFv VH11S (SSC-P)H WCH2 WCH3] recombinant single chain protein (SMIP) that binds to the CD37 antigen; SEQ ID NO: 2”?
Answer: TRU-016 concentration at saturation of FITC signal on B lymphocytes ([1]; CD19 positive gate): approximately 1 μg/mL; mean fluorescence intensity (MFI) at saturation ([1]; CD19 positive gate): ~1000; staining of the non-B lymphocyte population ([1]; non-B lymphocyte gate): detectable, but very low; CDC versus protein produced by untreated CHO cells (Ramos B cells): similar; CD16 binding activity of sera containing TRU-016 (CD16): retained its increased CD16 binding activity; mean survival time (Ramos cells): increase mean survival time; tumor volume (Ramos cells): reduce tumor volume; ADCC activity relative to untreated TRU-016 [2]: significantly increased
